{"source": "patent US20250269036A1", "about": "“METHODS FOR ENHANCEMENT OF ENGINEERED CELL THERAPIES IN CANCER TREATMENT” (PURDUE RESEARCH FOUNDATION, priority 2021, published 2025)", "key": {"[1]": {"test_system": "IL-4, IL-6 plus IL-13 stimulated THP-1 cells (M2-like macrophages)", "assay": "Reprogramming of M2-polarized THP-1 macrophages, marker mRNA by qPCR", "type": "cell-based, human", "protocol": "THP-1 cells were initially selected as a model system because this human monocytic cell line is known to acquire an M2-like phenotype and produce significant quantities of anti-inflammatory cytokines upon stimulation with IL-4, IL-6 plus IL-13.\nTHP-1 cells were seeded into 96-well plates at a density of 60,000 cells/well. Cells were differentiated into unpolarized macrophages by 48 hours incubation with 200 nM PMA followed by 24 hours incubation in fresh RPMI medium. […] Cultures were maintained at 37° C. in a humidified 5% CO2 incubator.\nTotal RNA was isolated from 1×10^5-2×10^5 macrophages using a Quick-RNATM MicroPrep kit (Zymo Research, Irvine, CA) according to the manufacturer-recommended protocol. […] IL-6, CXCL10, IFNα, IFN-γ and CD86 were used as markers for an M1 phenotype, while CCL18, CD206, CD163 and Arg1 were employed as markers for the M2 phenotype. IL-1β, PDGFβ, MMP9 and TIMP 3 were measured as indicators of an anti-inflammatory phenotype. IRAK-4 was used as an indicator of TLR7 stimulation. To control for specificity of the amplification products, a melting curve analysis was performed. […] Each sample was analyzed independently in triplicate for each marker.\nPrimarily, human monocytic (THP-1) cells were induced to the M2-like phenotype using the methods and materials previously described. In particular, THP-1 cells were seeded into 96-well plates at a density of 60,000 cells/well. Cells were differentiated into unpolarized macrophages by 48h incubation with 200 nM PMA followed by 24 hours incubation in fresh RPMI medium. The resulting macrophages were polarized to an M2-like phenotype by incubation with 20 ng/ml IL-4, 20 ng/ml IL-13, and 5 ng/mL IL-6 for 48h. Cultures were maintained at 37° C. in a humidified 5% CO2 incubator.\nIn addition to the nonconjugated TLR7 agonist, conjugated compounds of the present disclosure were likewise evaluated. […] The cells were subsequently harvested for gene analysis by qPCR and the relative expression of CCL18 (FIG. 14A), CD206 (FIG. 14B), and IL-1β (FIG. 14C) analyzed."}, "[2]": {"assay": "Stability during incubation in culture media", "type": "physicochemical", "conditions": "37° C. in the culture media, 48 hours", "protocol": "Indeed, Compound 1B retained the original structure after 48 hours incubation."}, "[3]": {"test_system": "M2-induced THP-1 macrophages", "assay": "Secreted CCL18 and IL-1β in THP-1 macrophage supernatants by ELISA", "type": "cell-based, human", "protocol": "FIGS. 6A-6D show graphical data representative of various marker levels measured from M2-induced THP-1 macrophages treated with different concentrations of drugs for 48 hours (FIGS. 6A and 6B) or for 2 hours, then displaced with fresh medium and cultured for the remaining 46 hours (FIGS. 6C and 6D). In both cases, cell supernatants were collected and secreted CCL18 protein and IL-1β was detected by ELISA.\nCCL18 and IL-1β were quantified in induced THP-1 cell supernatants using a human DuoSet ELISA Development System (R&D Systems Europe, Abingdon, UK; #DY394-05) and an IL-1 beta Human ELISA Kit (Thermo Fisher Scientific, Waltham, MA; #BMS224-2) as described by manufactures. BALF samples were analyzed for mouse IFN-γ using ELISA MAX™ Deluxe (Biolegend, San Diego, CA; #430804)."}, "fibrotic lungs": {"test_system": "fibrotic lungs", "assay": "Staining of healthy and fibrotic lung sections (DAPI, anti-F4/80, anti-CD206)", "type": "in vivo, mice", "conditions": "differences between treated groups", "description": "Sections from the same healthy and fibrotic lungs described in FIG. 6 were stained with DAPI (nuclei; blue), anti-F4/80 (macrophages; red), and anti-CD206 (M2 macrophage marker; green), and images were obtained with a Leica Versa 8 whole-slide scanner as described in Methods (n=2). Scale bars, 100 μm."}, "healthy mice": {"test_system": "healthy mice", "assay": "Plasma cytokine levels in healthy mice after tail vein injection", "type": "in vivo", "protocol": "(FIGS. 20A-C) Measurement of plasma IL-6 (FIG. 20A), IFNα (FIG. 20B) and TNFα (FIG. 20C) (n=3). (FIGS. 20D-F). The effect of drug concentration on plasma levels of IL-6 (FIG. 20D), IFNα (FIG. 20E), and TNFα (FIG. 20F) was determined at 1.5h, 1h, or 1h after treatment, respectively (n=2) (FIG. 20G).\n(FIGS. 36C and 36D). The effect of drug on plasma levels of IL-6 (FIG. 36C) and TNFα (FIG. 36D) was determined at 1 hour or 1.5 hours after treatment."}, "BM-induced mice": {"test_system": "BM-induced mice", "protocol": "Studies were also performed to determine if macrophages in pulmonary fibrotic lungs might be specifically targeted with folate-linked drugs in vivo. […] (The BM model is widely regarded to be helpful in terms of enabling mechanistic investigations relevant to fibrogenesis in an in vivo context.)\nMore specifically, eight-week-old C57BL6 male mice from Charles River (average weight 22 g to 25 g) were housed under pathogen-free conditions at room temperature (22° C.) under a 12 hours light-dark cycle. Mice were placed on a folate deficient chow (Envigo Teklad Global Rat Food Pellets) for 1 week prior to the BM or PBS instillation. Fresh water and folate-deficient diet were freely available. All animal procedures were approved by the Purdue Animal Care and Use Committee in accordance with National Institute of Health guidelines.\nThereafter, the mice were anesthetized with ketamine/xylazine and the necks of the mice were shaved using hair remover lotion and then sterilized with 70% alcohol. A small incision was made on the neck to visualize the trachea. Mice were positioned at a 75-degree angle and injected intratracheally with 100 μL sterile PBS or BM (Cayman Chemicals, Ann Arbor, MI; #13877) dissolved in PBS (0.75 mg/kg) using a 1 cc syringe with 26 G needle. Body weights were monitored every other day throughout the experiment.\nAfter 2 hours, mice were sacrificed using CO2 asphyxiation and an incision in the skin from the abdomen to neck was immediately made to expose the lungs and trachea. A small cut in the upper trachea was then introduced for insertion of a blunted, 22-gauge needle, and a nylon string was tied around the trachea to seal the trachea around the needle. The trachea (containing the inserted needle), lungs and heart were then removed en masse by carefully cutting the connective tissue beneath the lungs, and the bronchus of left lung was clipped with a Dieffenbach vessel clip. The right lung was injected with PBS and aspirated 3 times using a 1 ml syringe, and the recovered lavage fluid was saved on ice.\nBronchoalveolar lavage fluid (BALF) was then analyzed to determine how the targeted TLR7 agonist works. BALF samples were centrifuged at 1500 rpm for 5 min at 4° C. and the supernatant was aliquoted and stored at −80° C. for cytokine/chemokine analyses. Cell pellets were resuspended and cultured in pre-warmed RPMI 1640 medium for 2 hours and then washed 3× with pre-warmed PBS prior to harvesting for qPCR assay. The right lung was then tied with a nylon string and used for subsequent analysis of hydroxyproline content. The left lung was inflated with 1 ml PBS using the inserted syringe and transferred to 10% formalin solution for subsequent histological analyses.\nLobes of the right lung collected above were weighed, placed in a pressure-tight vial (Supelco Inc., Bellefonte, PA; #27003), and hydrolyzed with 6N HCl (10 ml/g, v/w) in a sand bath at 120° C. for 3.5 hours. The hydrolyzed solution was cooled at 4° C. for 15 min and transferred to a 1.5 ml Eppendorf tube prior to centrifugation at 12,000 rcf for 15 min at 4° C. Supernatant was carefully collected, aliquoted and used for hydroxyproline (HYP) analysis.\nFor the subsequent HYP analysis, 10 μl of sample was transferred into a 96-well plate and neutralized with 10 μl of 5.3 M sodium hydroxide solution. Isopropanol (40 μl) was then added to each well followed by 20 μl of oxidation buffer and the mixture was incubated on a shaker at room temperature for 5 min. […]"}, "[4]": {"test_system": "M2-induced human monocyte-derived macrophages", "assay": "Reprogramming of M2-induced human monocyte-derived macrophages", "type": "cell-based", "conditions": "100 nM, 2 hours + 46 hours, excess FA-glucosamine", "protocol": "Changes in both sets of cytokines were inhibited by blockade of unoccupied folate receptors with excess FA-glucosamine (2+46h, competition)."}, "[5]": {"conditions": "2 hours with drug, then drug-free medium"}, "[6]": {"conditions": "incubated continuously for 48 hours, ELISA"}}, "data": [{"smiles": "CCCCc1nc2c(N)nc3ccccc3c2n1CC(C)(C)OC(=O)OCCSSCC(NC(=O)CCC(NC(=O)c1ccc(NCc2cnc3nc(N)[nH]c(=O)c3n2)cc1)C(=O)O)C(=O)O", "note": "(centres unmarked) [Compound 1B]", "values": [{"measurement": "cancer/M2-type markers (CCL18, CD206, IL-1β, PDGFβ mRNA)", "setting": "[1]; 2 hours incubation, harvested immediately or after further 46 hours", "value": "downregulated cancer/M2-type markers of macrophages more than Compound 1A"}, {"measurement": "TNFα induction", "setting": "[1]; [5]", "value": "dramatically improved"}, {"measurement": "potency in reprogramming relative to comparator", "setting": "[1]; [5]", "value": "superior potency relative to Compound 1A"}, {"measurement": "M2 to M1 marker changes (FIGS. 3A-3F)", "setting": "[1]; 48 hours incubation, various concentrations", "value": "same qualitative changes were observed, only the magnitude of the impact of Compound 1B was somewhat reduced"}, {"measurement": "stability during incubation", "setting": "[2]", "value": "remained stable"}, {"measurement": "reduction of secreted CCL18 and IL-1β, comparison of compounds", "setting": "[3]; drug exposure limited to 2 hours, then 46 hours fresh medium", "value": "superior"}, {"measurement": "secreted CCL18 polypeptide", "setting": "[3]; [6]", "value": "reductions"}, {"measurement": "secreted IL-1β polypeptide", "setting": "[3]; [6]", "value": "reductions"}, {"measurement": "proinflammatory response in vivo (lung section staining)", "setting": "fibrotic lungs", "value": "robust proinflammatory response"}, {"measurement": "inflammatory cytokine release, dose comparison", "setting": "healthy mice; effect of drug concentration, 1.5h, 1h or 1h after treatment", "value": "stimulates less inflammatory cytokine release than half the dose of Compound 1A"}, {"measurement": "systemic cytokine release (plasma IL-6, IFNα, TNFα)", "setting": "healthy mice; healthy mice, tail vein, 10 nmol", "value": "does not"}, {"measurement": "lung histology with increasing dose", "setting": "BM-induced mice; 0, 1, 3 or 10 nmoles", "value": "lung histology improved"}, {"measurement": "hydroxyproline content of lung hydrolysates, order of efficacy by dose", "setting": "BM-induced mice; 0, 1, 3 or 10 nmoles every other day from day 10, day 21", "value": "10 nmol/mouse>3 nmol/mouse>1 nmol/mouse>0 nmol/mouse"}, {"measurement": "total number of BALF cells", "setting": "BM-induced mice; different doses, day 21", "value": "decreased in a dose-dependent manner"}, {"measurement": "collagen stain (Masson's trichrome)", "setting": "BM-induced mice; tail vein injection", "value": "strongly suppressed"}, {"measurement": "lung architecture (H&E staining)", "setting": "BM-induced mice; treated beginning on day 10", "value": "lung architecture that resembles that of healthy mice"}, {"measurement": "downregulation of biomarkers in presence of competitor", "setting": "[4]", "value": "blocked"}]}]}
